From patent US20240246942A1, “KINASE INHIBITORS FOR THE TREATMENT OF NEURODEGENERATIVE DISEASES” (priority 2020, published 2024)
pIC50: −log10 of the molar value.

Tests used:
JNK3α1 = JNK3α1 (Homo sapiens, UniProt P53779); assay type: biochemical; conditions: mean of ≥2 experiments; read-out: Biochemical inhibition IC50 JNK3
Protocol: A 10-point titration of all compounds was carried out in 3-fold dilutions from 10 μM to 0.5 nM.

[1] = tested on: JNK3-dependent phosphorylation of APP at T668; test: JNK3 inhibition assay in rat primary neuron cultures (Western blot, anisomycin activated); assay type: cell-based; conditions: even at a concentration as low as 10 nM; FIGS. 5A-5C
Protocol: Both hippocampal and cortical neurons were isolated from E18 rat embryos and cultured in NbActive 1 medium that contains B27 (Brainbits, LLC) plus penicillin/streptomycin (Life Technologies). At the 7th day in culture, cells were treated with different concentrations of inhibitors diluted in DMSO and 80 ng/ml Anisomycin for 30 min to activate the endogenous JNK3. At the end of incubation time, whole cell lysates were prepared in RIPA buffer containing 50 mM Tris (pH 8.0), 150 mM NaCl, 2 mM EDTA, 1% NP-40, 0.5% deoxycholate supplemented with 10 mM Na pyrophosphate, 1 mM sodium orthovanadate, 25 mM NaF, 10 μg/ml leupeptin, 10 μg/ml aprotinin, 1 mM β-glycerophosphate, and 2 mM PMSF. The lysates were subjected to Western blotting to detect whether inhibitors block JNK3-dependent phosphorylation of APP at T668 and c-jun at S73. Phospho-APP^T668, phosphor-c-jun^S73, APP, and c-jun antibodies were from Cell Signaling Technology.

Sequence of JNK3α1 (P53779 1-422 isoform P53779-2): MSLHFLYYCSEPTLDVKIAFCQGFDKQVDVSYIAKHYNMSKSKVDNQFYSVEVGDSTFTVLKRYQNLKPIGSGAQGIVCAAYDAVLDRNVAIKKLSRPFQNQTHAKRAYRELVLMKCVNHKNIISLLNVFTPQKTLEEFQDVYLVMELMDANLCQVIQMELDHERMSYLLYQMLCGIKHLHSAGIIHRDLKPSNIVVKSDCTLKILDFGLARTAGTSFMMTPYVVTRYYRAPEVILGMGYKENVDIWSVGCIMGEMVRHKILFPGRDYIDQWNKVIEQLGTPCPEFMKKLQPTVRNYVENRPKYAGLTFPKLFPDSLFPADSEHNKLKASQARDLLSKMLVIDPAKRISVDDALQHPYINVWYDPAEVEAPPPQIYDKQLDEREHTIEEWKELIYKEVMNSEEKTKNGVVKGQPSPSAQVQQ

SMILES: O=C(Nc1cnn(-c2csc(C(=O)NC3COC3)c2)c1)Nc1ccccc1Cl [Compound 17, 4-(4-(3-(2-chlorophenyl)ureido)-1H-pyrazol-1-yl)-N-(oxetan-3-yl)thiophene-2-carboxamide]
- pIC50 (JNK3α1): 7.46
- inhibition of phosphorylation of residue T668 of APP [1]: significantly inhibited
